Measurements taken from ChEMBL document CHEMBL1201862, “PubChem BioAssay data set” (2004).
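Grown in 96-well plates, cells were treated for 48 hours with each compound at five concentrations. Insufficient inhibition: endpoint recorded as highest concentration tested. At the GI50, growth is halved.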 Activity calls are given as the source filed them. No stated cut-off is given here; in the data, active = GI50 up to about 1.1 µM and inactive = higher.

Experiments:
Experiment in all cases: DTP human tumour cell line panel, 48 h
LOX IMVI = test system: LOX IMVI
OVCAR-4 = test system: OVCAR-4
UO-31 = test system: UO-31
SK-OV-3 = test system: SK-OV-3
COLO 205 = test system: COLO 205
SF-295 = test system: SF-295
CAKI-1 = test system: CAKI-1
SNB-19 = test system: SNB-19
SNB-75 = test system: SNB-75
SF-268 = test system: SF-268
MDA-MB-435 = test system: MDA-MB-435
Hs-578T = test system: Hs-578T
A549 = test system: A549
NCI-H460 = test system: NCI-H460
SK-MEL-2 = test system: SK-MEL-2
HT-29 = test system: HT-29
K562 = test system: K562
MOLT-4 = test system: MOLT-4
ACHN = test system: ACHN
A498 = test system: A498
M14 = test system: M14
DU-145 = test system: DU-145
U-251 = test system: U-251
Malme-3M = test system: Malme-3M
MDA-MB-231 = test system: MDA-MB-231
786-0 = test system: 786-0
HL-60 = test system: HL-60
SW-620 = test system: SW-620
HOP-62 = test system: HOP-62
MCF7 = test system: MCF7
RPMI-8226 = test system: RPMI-8226
KM12 = test system: KM12
SN12C = test system: SN12C
SK-MEL-28 = test system: SK-MEL-28
UACC-257 = test system: UACC-257
NCI-H226 = test system: NCI-H226
NCI-H23 = test system: NCI-H23
UACC-62 = test system: UACC-62
TK-10 = test system: TK-10
NCI/ADR-RES = test system: NCI/ADR-RES
IGROV-1 = test system: IGROV-1
SF-539 = test system: SF-539
HCT-15 = test system: HCT-15
HCC 2998 = test system: HCC 2998
CCRF-CEM = test system: CCRF-CEM
RXF 393 = test system: RXF 393
MDA-N = test system: MDA-N
EKVX = test system: EKVX
T47D = test system: T47D
OVCAR-3 = test system: OVCAR-3
OVCAR-8 = test system: OVCAR-8
HCT-116 = test system: HCT-116
PC-3 = test system: PC-3
OVCAR-5 = test system: OVCAR-5
HOP-92 = test system: HOP-92
NCI-H522 = test system: NCI-H522
SR = test system: SR
SK-MEL-5 = test system: SK-MEL-5

For `CC(=O)NCc1nc(C#N)c(N)o1`, the GI50 (LOX IMVI) was > 100 µM (inactive), the GI50 (OVCAR-4) was > 100 µM (inactive) and the GI50 (UO-31) was > 100 µM (inactive). For the same molecule, the GI50 (SK-OV-3) was > 100 µM (inactive), the GI50 (COLO 205) was > 100 µM (inactive) and the GI50 (SF-295) was > 100 µM (inactive). The GI50 (CAKI-1) was > 100 µM (inactive), the GI50 (SNB-19) was > 100 µM (inactive) and the GI50 (SNB-75) was > 100 µM (inactive). The GI50 (SF-268) was > 100 µM (inactive), the GI50 (MDA-MB-435) was > 100 µM (inactive) and the GI50 (Hs-578T) was > 100 µM (inactive). The GI50 (A549) was > 100 µM (inactive), the GI50 (NCI-H460) was > 100 µM (inactive) and the GI50 (SK-MEL-2) was > 100 µM (inactive). For the same molecule, the GI50 (HT-29) was > 100 µM (inactive), the GI50 (K562) was > 100 µM (inactive) and the GI50 (MOLT-4) was > 100 µM (inactive). The GI50 (ACHN) was > 100 µM (inactive), the GI50 (A498) was > 100 µM (inactive) and the GI50 (M14) was > 100 µM (inactive). The GI50 (DU-145) was > 100 µM (inactive), the GI50 (U-251) was > 100 µM (inactive) and the GI50 (Malme-3M) was > 100 µM (inactive). The GI50 (MDA-MB-231) was > 100 µM (inactive), the GI50 (786-0) was > 100 µM (inactive) and the GI50 (HL-60) was > 100 µM (inactive). The GI50 (SW-620) was > 100 µM (inactive), the GI50 (HOP-62) was > 100 µM (inactive) and the GI50 (MCF7) was > 100 µM (inactive). The GI50 (RPMI-8226) was > 100 µM (inactive), the GI50 (KM12) was > 100 µM (inactive) and the GI50 (SN12C) was > 100 µM (inactive). The GI50 (SK-MEL-28) was > 100 µM (inactive), the GI50 (UACC-257) was > 100 µM (inactive) and the GI50 (NCI-H226) was > 100 µM (inactive). The GI50 (NCI-H23) was > 100 µM (inactive), the GI50 (UACC-62) was > 100 µM (inactive) and the GI50 (TK-10) was > 100 µM (inactive). For the same molecule, the GI50 (NCI/ADR-RES) was > 100 µM (inactive), the GI50 (IGROV-1) was 8.95 µM (inactive) and the GI50 (SF-539) was > 100 µM (inactive). For the same molecule, the GI50 (HCT-15) was > 100 µM, the GI50 (HCC 2998) was > 100 µM (inactive) and the GI50 (CCRF-CEM) was > 100 µM (inactive). The GI50 (RXF 393) was > 100 µM (inactive), the GI50 (MDA-N) was > 100 µM (inactive) and the GI50 (EKVX) was > 100 µM (inactive). For the same molecule, the GI50 (T47D) was > 100 µM (inactive), the GI50 (OVCAR-3) was > 100 µM (inactive) and the GI50 (OVCAR-8) was > 100 µM (inactive). The GI50 (HCT-116) was > 100 µM (inactive), the GI50 (PC-3) was > 100 µM (inactive) and the GI50 (OVCAR-5) was > 100 µM (inactive). For the same molecule, the GI50 (HOP-92) was > 100 µM (inactive) and the GI50 (NCI-H522) was > 100 µM (inactive).
In the case of `C=CCN(CCN(CC=C)S(=O)(=O)c1ccc(C)cc1)S(=O)(=O)c1ccc(C)cc1`, the GI50 (LOX IMVI) was 55.1 µM (inactive), the GI50 (OVCAR-4) was > 100 µM (inactive) and the GI50 (UO-31) was > 100 µM (inactive). For the same molecule, the GI50 (COLO 205) was > 100 µM (inactive), the GI50 (SF-295) was > 100 µM (inactive) and the GI50 (SNB-19) was > 100 µM (inactive). For the same molecule, the GI50 (SNB-75) was > 100 µM (inactive), the GI50 (SF-268) was > 100 µM (inactive) and the GI50 (MDA-MB-435) was > 100 µM (inactive). The GI50 (Hs-578T) was > 100 µM (inactive), the GI50 (A549) was > 100 µM (inactive) and the GI50 (NCI-H460) was > 100 µM (inactive). For the same molecule, the GI50 (SR) was > 100 µM (inactive), the GI50 (HT-29) was > 100 µM (inactive) and the GI50 (K562) was > 100 µM (inactive). For the same molecule, the GI50 (MOLT-4) was > 100 µM (inactive), the GI50 (ACHN) was > 100 µM (inactive) and the GI50 (A498) was > 100 µM (inactive). The GI50 (M14) was > 100 µM (inactive), the GI50 (DU-145) was > 100 µM (inactive) and the GI50 (U-251) was > 100 µM (inactive). For the same molecule, the GI50 (MDA-MB-231) was > 100 µM (inactive), the GI50 (SW-620) was > 100 µM (inactive) and the GI50 (MCF7) was > 100 µM (inactive). For the same molecule, the GI50 (KM12) was > 100 µM (inactive), the GI50 (SN12C) was > 100 µM (inactive) and the GI50 (SK-MEL-28) was > 100 µM (inactive). The GI50 (UACC-257) was > 100 µM (inactive), the GI50 (NCI-H226) was > 100 µM (inactive) and the GI50 (NCI-H23) was > 100 µM (inactive). For the same molecule, the GI50 (TK-10) was > 100 µM (inactive), the GI50 (NCI/ADR-RES) was > 100 µM (inactive) and the GI50 (HCT-15) was > 100 µM. The GI50 (HCC 2998) was > 100 µM (inactive), the GI50 (CCRF-CEM) was > 100 µM (inactive) and the GI50 (RXF 393) was > 100 µM (inactive). For the same molecule, the GI50 (MDA-N) was > 100 µM (inactive), the GI50 (T47D) was > 100 µM (inactive) and the GI50 (OVCAR-3) was > 100 µM (inactive). For the same molecule, the GI50 (OVCAR-8) was > 100 µM (inactive), the GI50 (HCT-116) was > 100 µM (inactive) and the GI50 (PC-3) was > 100 µM (inactive). For the same molecule, the GI50 (HOP-92) was 95.9 µM (inactive), the GI50 (SK-MEL-5) was > 100 µM (inactive) and the GI50 (NCI-H522) was > 100 µM (inactive).
With `C=C(Br)CNCC(=C)Br` the GI50 (LOX IMVI) was > 100 µM (inactive), the GI50 (OVCAR-4) was > 100 µM (inactive) and the GI50 (UO-31) was > 100 µM (inactive). For the same molecule, the GI50 (SK-OV-3) was > 100 µM (inactive), the GI50 (COLO 205) was 52 µM (inactive) and the GI50 (SF-295) was > 100 µM (inactive). The GI50 (CAKI-1) was > 100 µM (inactive), the GI50 (SNB-19) was > 100 µM (inactive) and the GI50 (SNB-75) was 68.5 µM (inactive). For the same molecule, the GI50 (SF-268) was > 100 µM (inactive), the GI50 (MDA-MB-435) was > 100 µM (inactive) and the GI50 (Hs-578T) was > 100 µM (inactive). For the same molecule, the GI50 (A549) was > 100 µM (inactive), the GI50 (NCI-H460) was > 100 µM (inactive) and the GI50 (SK-MEL-2) was > 100 µM (inactive). For the same molecule, the GI50 (SR) was > 100 µM (inactive), the GI50 (HT-29) was 90.6 µM (inactive) and the GI50 (K562) was 38 µM (inactive). For the same molecule, the GI50 (MOLT-4) was 48.6 µM (inactive), the GI50 (ACHN) was > 100 µM (inactive) and the GI50 (A498) was > 100 µM (inactive). The GI50 (M14) was > 100 µM (inactive), the GI50 (DU-145) was > 100 µM (inactive) and the GI50 (U-251) was > 100 µM (inactive). The GI50 (Malme-3M) was 93.1 µM (inactive), the GI50 (MDA-MB-231) was > 100 µM (inactive) and the GI50 (786-0) was > 100 µM (inactive). For the same molecule, the GI50 (HL-60) was 26.7 µM (inactive), the GI50 (SW-620) was > 100 µM (inactive) and the GI50 (HOP-62) was > 100 µM (inactive). The GI50 (MCF7) was > 100 µM (inactive), the GI50 (RPMI-8226) was 51.9 µM (inactive) and the GI50 (KM12) was > 100 µM (inactive). The GI50 (SN12C) was > 100 µM (inactive), the GI50 (SK-MEL-28) was > 100 µM (inactive) and the GI50 (UACC-257) was 29 µM (inactive). For the same molecule, the GI50 (NCI-H226) was > 100 µM (inactive), the GI50 (NCI-H23) was > 100 µM (inactive) and the GI50 (UACC-62) was > 100 µM (inactive). The GI50 (TK-10) was > 100 µM (inactive), the GI50 (NCI/ADR-RES) was > 100 µM (inactive) and the GI50 (IGROV-1) was > 100 µM (inactive). For the same molecule, the GI50 (SF-539) was > 100 µM (inactive), the GI50 (HCT-15) was > 100 µM and the GI50 (HCC 2998) was > 100 µM (inactive). For the same molecule, the GI50 (CCRF-CEM) was 76.2 µM (inactive), the GI50 (RXF 393) was > 100 µM (inactive) and the GI50 (MDA-N) was > 100 µM (inactive). For the same molecule, the GI50 (EKVX) was > 100 µM (inactive), the GI50 (T47D) was > 100 µM (inactive) and the GI50 (OVCAR-3) was 30.8 µM (inactive). The GI50 (OVCAR-8) was > 100 µM (inactive), the GI50 (HCT-116) was 68.1 µM (inactive) and the GI50 (PC-3) was 50.5 µM (inactive). For the same molecule, the GI50 (OVCAR-5) was > 100 µM (inactive), the GI50 (SK-MEL-5) was 89.7 µM (inactive) and the GI50 (NCI-H522) was > 100 µM (inactive).
